{
  "source": "patent US20250338857A1",
  "about": "“USE OF INTERFERING RNAS DIRECTED AGAINST THE CHOLINERGIC SYSTEM FOR CONTROLLING INSECT PESTS” (priority 2022, published 2025)",
  "key": {"[1]": {"tested_on": "cockroach Periplaneta americana", "assay": "Mortality after acute imidacloprid intoxication in cockroaches exposed to a sublethal dose for 30 days", "format": "in vivo", "conditions": "0.025 μg/cockroach/day for 30 days, re-exposure 96 h"}, "aphid larvae": {"tested_on": "aphid larvae", "assay": "Imidacloprid concentration-effect mortality curve in aphid larvae (LC50)", "format": "in vivo", "conditions": "Acyrthosiphon pisum, artificial nutrition", "experimental": "Mortality tests were performed using an artificial nutrition system comprising a PVC tube closed by a Parafilm® at each end, in which 5 adult aphids or 20 larvae were deposited. At one of the ends of the artificial nutrition “cell”, 200 μL of nutrient solution comprising the solution to be tested (insecticide, dsRNA) were deposited on the Parafilm then covered with a 2nd Parafilm to allow the aphids to suck the solution for feeding by piercing the Parafilm with their rostrum. The cells were placed at 20° C. in a chamber with a photoperiod of 16 h. To determine the concentration of imidacloprid leading to 50% mortality (LC50) in the aphid larvae, a concentration-effect curve was plotted at 48 h and 72 h from a range of imidacloprid concentrations from 10^−6 to 10 μg/mL.\nThe mortality curves were obtained with GraphPad Prism software in the form of a non-linear regression and adjusted with the Hill equation,\n[formula] • where Y is the percent mortality observed at the concentration value X, m and M are respectively the minimum and maximum values of the curve, nH is the Hill coefficient and LC50 is the concentration of imidacloprid causing 50% mortality. The results are expressed as a mean±S.E.M. Type of Effect of the dsRNAs"}},
  "data": [
    {"smiles": "O=[N+]([O-])NC1=NCCN1Cc1ccc(Cl)nc1", "note": "[imidacloprid]", "values": [
      {"measurement": "effect of sublethal intoxication for 30 days on sensitivity of cockroaches to acute intoxication", "setting": "[1]", "value": "loss of sensitivity"},
      {"measurement": "LC50", "setting": "aphid larvae; 48 h", "value": 8, "unit": "ng/mL"},
      {"measurement": "LC50", "setting": "aphid larvae; 72 h", "value": 4, "unit": "ng/mL"}
    ]}
  ]
}
